From patent US11655268B2, “Nucleoside or nucleotide derivatives, and uses thereof” (ST Pharm Co., Ltd., priority 2018, dated 2023)
Structures can show the parent of a compound that is named as a salt.

Experiments:
[1] = Cytotoxicity (CC50) in Vero cells; settings: African green monkey, CC50 (DENV), Vero cells, DENV test
DENV = test: Reduction in viral infection, dengue virus in Vero cells, immunofluorescence (4G2 antibody); assay type: cell-based, Dengue virus New Guinea C (NGC); settings: 72 h, read-out: EC50 DENV
in vitro [2] = settings: human
MERS-CoV = test: microbe, parasite or virus in culture; assay type: cell-based, MERS virus (MERS-CoV/KOR/KNIH/002_05_2015); settings: Middle East respiratory syndrome-related coronavirus, Huh-7, 72 h, read-out: EC50 MERS-CoV
Influenza virus B/Lee/40 = test: Cytopathic effect reduction, influenza B Lee in MDCK cells, MTT; assay type: cell-based; settings: for Selectivity index FluB Lee: CC50/EC50; for EC50: MDCK, 72 h, read-out: Anti-Flu activity EC50 FluB Lee
in vitro [3] = settings: dog

Row | SMILES | CC50 at 3 days [1] [µM] | EC50 (DENV) [µM] | CC50 at 3 days (in vitro [2]) [µM] | EC50 (MERS-CoV) [µM] | Selectivity index FluB Lee (Influenza virus B/Lee/40) | EC50 (Influenza virus B/Lee/40) [µM] | CC50 at 3 days (in vitro [3]) [µM] | CC50 (in vitro [3]) [µM]
1 | O=C(Nc1ccn(C2O[C@H](CO)[C@@H](O)[C@H]2F)c(=O)n1)c1cccnc1 (stereo in doubt) [Example 26, N-(1-((2S,3R,4R,5R)-3-fluoro-4-hydroxy-5-(hydroxymethyl)tetrahydrofuran-2-yl)-2-oxo-1,2-dihydropyrimidin-4-yl)nicotinamide] | > 100 | 57.7 |  |  |  |  |  | 
2 | Cc1ccc(C(=O)Nc2ccn(C3O[C@H](CO)[C@@H](O)[C@H]3F)c(=O)n2)cn1 (stereo in doubt) [Example 32, N-(1-((2S,3R,4R,5R)-3-fluoro-4-hydroxy-5-(hydroxymethyl)tetrahydrofuran-2-yl)-2-oxo-1,2-dihydropyrimidin-4-yl)-6-methylnicotinamide] |  |  | > 100 | > 100 |  |  |  | 
3 | Cc1cncc(C(=O)Nc2ccn(C3O[C@H](CO)[C@@H](O)[C@H]3F)c(=O)n2)n1 (stereo in doubt) [Example 34, N-(1-((2S,3R,4R,5R)-3-fluoro-4-hydroxy-5-(hydroxymethyl)tetrahydrofuran-2-yl)-2-oxo-1,2-dihydropyrimidin-4-yl)-6-methylpyrazine-2-carboxamide] |  |  | > 100 | > 100 | >9.0 | 11.1 | > 100 | 
4 | O=C(Nc1ccn(C2O[C@H](CO)[C@@H](O)[C@H]2F)c(=O)n1)c1ccc(C(F)(F)F)nc1 (stereo in doubt) [Example 41, N-(1-((2S,3R,4R,5R)-3-fluoro-4-hydroxy-5-(hydroxymethyl)tetrahydrofuran-2-yl)-2-oxo-1,2-dihydropyrimidin-4-yl)-6-(trifluoromethyl)nicotinamide] |  |  |  |  | >5.3 | 18.9 | > 100 | 
5 | O=C(Nc1ccn(C2O[C@H](CO)[C@@H](O)[C@H]2F)c(=O)n1)c1ccc(F)nc1 (stereo in doubt) [Example 42, 6-Fluoro-N-(1-((2S,3R,4R,5R)-3-fluoro-4-hydroxy-5-(hydroxymethyl)tetrahydrofuran-2-yl)-2-oxo-1,2-dihydropyrimidin-4-yl)nicotinamide] |  |  |  |  | >5.5 | 18.3 | > 100 | 
6 | NC12CC3CC(CC(C3)C1)C2 [AMT, amantadine hydrochloride, reference compound] |  |  |  |  |  | > 100 |  | > 100
7 | O=C(Nc1ccn([C@@H]2O[C@H](CO)[C@@H](O)C2(F)F)c(=O)n1)c1ccc(C(F)(F)F)nc1 [Example 14, N-(1-((2R,4R,5R)-3,3-difluoro-4-hydroxy-5-(hydroxymethyl)tetrahydrofuran-2-yl)-2-oxo-1,2-dihydropyrimidin-4-yl)-6-(trifluoromethyl)nicotinamide] |  |  |  |  | >32.3 | 3.1 | > 100 | 
8 | Cn1cc(C(=O)Nc2ccn([C@@H]3O[C@H](CO)[C@@H](O)C3(F)F)c(=O)n2)cn1 [Example 15, N-(1-((2R,4R,5R)-3,3-difluoro-4-hydroxy-5-(hydroxymethyl)tetrahydrofuran-2-yl)-2-oxo-1,2-dihydropyrimidin-4-yl)-1-methyl-1H-pyrazole-4-carboxamide] |  |  |  |  | 12.5 | 8 | > 100 | 
9 | O=C(Nc1ccn([C@@H]2O[C@H](CO)[C@@H](O)C2(F)F)c(=O)n1)c1cccc(-c2ccccc2)n1 [Example 17, N-(1-((2R,4R,5R)-3,3-difluoro-4-hydroxy-5-(hydroxymethyl)tetrahydrofuran-2-yl)-2-oxo-1,2-dihydropyrimidin-4-yl)-6-phenylpicolinamide] | 58.9 | < 1.2 |  |  | >41.7 | 2.4 | > 100 | 
10 | O=C(Nc1ccn([C@@H]2O[C@H](CO)[C@@H](O)C2(F)F)c(=O)n1)c1ccc([N+](=O)[O-])cn1 [Example 19, N-(1-((2R,4R,5R)-3,3-difluoro-4-hydroxy-5-(hydroxymethyl)tetrahydrofuran-2-yl)-2-oxo-1,2-dihydropyrimidin-4-yl)-5-nitropicolinamide] | < 1.2 | < 1.2 |  |  | >83.3 | < 1.2 | > 100 | 
11 | Cl.Nc1ccc(C(=O)Nc2ccn([C@@H]3O[C@H](CO)[C@@H](O)C3(F)F)c(=O)n2)nc1 [Example 20, 5-amino-N-(1-((2R,4R,5R)-3,3-difluoro-4-hydroxy-5-(hydroxymethyl)tetrahydrofuran-2-yl)-2-oxo-1,2-dihydropyrimidin-4-yl)picolinamide-hydrochloride] | 75.9 | 1.6 |  |  | >5.1 | 19.5 |  | > 100
12 | COc1ccc(C(=O)Nc2ccn([C@@H]3O[C@H](CO)[C@@H](O)C3(F)F)c(=O)n2)nc1 [Example 21, N-(1-((2R,4R,5R)-3,3-difluoro-4-hydroxy-5-(hydroxymethyl)tetrahydrofuran-2-yl)-2-oxo-1,2-dihydropyrimidin-4-yl)-5-methoxypicolinamide] | > 100 | 1.3 |  |  | >4.5 | 22.3 | > 100 | 
13 | COc1ccc(C(=O)Nc2ccn([C@@H]3O[C@H](CO)[C@@H](O)C3(F)F)c(=O)n2)cn1 [Example 22, N-(1-((2R,4R,5R)-3,3-difluoro-4-hydroxy-5-(hydroxymethyl)tetrahydrofuran-2-yl)-2-oxo-1,2-dihydropyrimidin-4-yl)-6-methoxynicotinamide] | < 1.2 | < 1.2 |  |  | >4.1 | 24.4 | > 100 | 
14 | O=C(Nc1ccn([C@@H]2O[C@H](CO)[C@@H](O)C2(F)F)c(=O)n1)c1ccc(Cl)nc1 [Example 23, 6-Chloro-N-(1-((2R,4R,5R)-3,3-difluoro-4-hydroxy-5-(hydroxymethyl)tetrahydrofuran-2-yl)-2-oxo-1,2-dihydropyrimidin-4-yl)nicotinamide] | < 1.2 | < 1.2 |  |  | >16.1 | 6.2 | > 100 | 
15 | Cc1nccc(C(=O)Nc2ccn([C@@H]3O[C@H](CO)[C@@H](O)C3(F)F)c(=O)n2)n1 [Example 24, N-(1-((2R,4R,5R)-3,3-difluoro-4-hydroxy-5-(hydroxymethyl)tetrahydrofuran-2-yl)-2-oxo-1,2-dihydropyrimidin-4-yl)-2-methylpyrimidin-4-carboxamide] | 55.4 | < 1.2 |  |  | >83 | < 1.2 | > 100 | 
16 | O=C(Nc1ccn([C@@H]2O[C@H](CO)[C@@H](O)C2(F)F)c(=O)n1)c1ccc(-c2ccccc2)cn1 [Example 25, N-(1-((2R,4R,5R)-3,3-difluoro-4-hydroxy-5-(hydroxymethyl)tetrahydrofuran-2-yl)-2-oxo-1,2-dihydropyrimidin-4-yl)-5-phenylpicolinamide] | 29.5 | < 1.2 |  |  | >16.4 | 6.1 | > 100 | 
17 | CCC(CC)O[C@@H]1C=C(C(=O)O)C[C@H](N)[C@H]1NC(C)=O [OSV-C, oseltamivir carboxylate, reference compound] |  |  |  |  |  | 1.46 |  | 
18 | NC(=O)c1ncn([C@@H]2O[C@H](CO)[C@@H](O)[C@H]2O)n1 [RBV, ribavirin, reference compound] |  |  |  |  |  | 40.6 |  | 
